Reference: patent publication US20260206786A1, “PROCEDURE FOR PREPARING COMPOSITIONS WITH A HIGH CONTENT OF BIOACTIVE COMPOUNDS” (I.T.P. S.R.L. INNOVATION & TECHNOLOGY PROVIDER, priority 2022, published 2026)
Like-named read-outs stand apart in the source and are kept apart here.

Legend:
[1] = Comparison of process of the invention with maceration in oil, UV/VIS spectra; format: physicochemical
Procedure: (§1) Spectrophotometric analyses were performed using an ONDA UV/VIS Spectrophotometer, Model UV-31 SCAN. The oil samples were suitably diluted in RPE ethanol supplied by Carlo Erba. Scans were performed in the wavelength range of 600 nm and 300 nm, with a step size of 1 nm, using optical glass cuvettes.
(§2) In order to compare the efficacy of the method of the invention with the traditional method of enrichment by maceration in oil, enrichment of vegetable oils was carried out using both methods. Subsequently, equal amounts of oil obtained using the two methods were solubilised in a suitable solvent, respecting the same dilution ratio, and the resulting solutions were subjected to chromatographic and spectrophotometric analysis.

[2] = traditional preparation techniques, literature, cited from earlier work
[3] = Concentration of bioactive compound in oil enriched by the process of the invention; format: physicochemical
Procedure: as §1
(§3) HPLC analyses were performed using an Agilent HPLC Chromatograph, 1100 Series, equipped with an Agilent Technologies 1200 Series DAD UV/VIS detector, using an Agilent Eclipse plus 95 Å C18 Column, (100 mm—4.6 mm, 3.5 μm). Acetonitrile, Methanol, Water and Formic Acid for HPLC supplied by Sigma-Aldrich were used for the mobile phase.
At the end of the process, 5 mL of enriched oil was recovered with a concentration expressed as mass of lycopene per mass of oil of 35 mg/100 g, a concentration measured at 25° C. after centrifuging the oil for 15 minutes at 10,000 RPM.

[4] = Comparison of process of the invention with maceration in oil, HPLC chromatograms; format: physicochemical; details: Argan oil; Example 1 versus maceration of pure lycopene powder in oil
Procedure: as §3, §2

Row | Compound | capsaicin concentration (absorbance at 280 nm), innovative methodology versus traditional methodology ([1]; sunflower oil, Example 3 versus maceration) | maximum concentration in vegetable oil ([2]; listed as capsicin) | maximum concentration in vegetable oil [2] | concentration expressed as mass of Capsaicin on mass of oil ([3]; deodorised sunflower oil enriched per Example 3 (R134a, 35° C., 7.66 atm, 90 minutes), measured at 25° C. after centrifugation 15 minutes at 10,000 RPM) | concentration expressed as mass of Curcumin on mass of oil ([3]; wheat germ oil enriched per Example 2 (R1234ze, 28° C., 4.5 atm, 355 minutes), measured at 25° C. after centrifugation 15 minutes at 10,000 RPM) | lycopene concentration (absorbance at 502 nm), process of the invention versus traditional methodology ([1]; Argan oil, Example 1 versus maceration of pure lycopene powder in oil) | concentration expressed as mass of lycopene per mass of oil ([3]; refined argan oil enriched per Example 1 (R1234ze, 28° C., 4.5 atm, 120 minutes), measured at 25° C. after centrifuging 15 minutes at 10,000 RPM) | lycopene concentration (HPLC peak area), process of the invention versus conventional method [4]
1 | COc1cc(CNC(=O)CCCC/C=C/C(C)C)ccc1O [capsaicin] | approximately 6 times | ≤ 10 mg per 100 g of oil | no more than 10 mg per 100 g of oil | 61.2 mg/100 g | – | – | – | –
2 | COc1cc(/C=C/C(=O)CC(=O)/C=C/c2ccc(O)c(OC)c2)ccc1O [curcumin] | – | – | – | – | 1420 mg/100 g | – | – | –
3 | CC(C)=CCC/C(C)=C/C=C/C(C)=C/C=C/C(C)=C/C=C/C=C(C)/C=C/C=C(C)/C=C/C=C(\C)CCC=C(C)C [lycopene] | – | – | 7-8 mg per 100 g of oil | – | – | approximately 3.3 times | 35 mg/100 g | about 3.3 times
